Experimental data reported in paper PMC12410356 (International Journal for Parasitology: Drugs and Drug …, 2025).

How the values were obtained:
[1] = tested on: E. multilocularis metacestode vesicles; test: Metacestode vesicle viability assay (ATP, CellTiter-Glo); type: cell-based, Echinococcus multilocularis
Procedure: Viability was assessed after 12 days using the same metacestode vesicles as for the PGI release assay. Triton X-100 was added to each well to a final concentration of 0.1 %. Subsequently the metacestode vesicles were broken mechanically and 50 μL of the supernatant was mixed with 50 μL of CellTiter-Glo® buffer (Promega, Dübendorf, Switzerland). Measurements were performed on a HIDEX Sense microplate reader.

[2] = tested on: E. multilocularis metacestode vesicles; test: Phosphoglucose isomerase (PGI) release assay (damage-marker release) on metacestode vesicles; type: cell-based, Echinococcus multilocularis; details: 10 μM; for PGI d5 (relative PGI release): 5 days; for PGI d12 (relative PGI release): 12 days
[3] = overview screen, 10 μM, singlets, 12 days, relative to DMSO control
[4] = overview screen, singlets, relative to 0.1 % Triton X-100, DMSO subtracted
[5] = confirmation screen, triplicates, mean

| Compound | Viability d12 (relative viability) [1, 3] [%] | PGI d5 (relative PGI release) [2, 4] [%] | PGI d12 (relative PGI release) [2, 4] [%] | Viability d12 (relative viability) ([1]; confirmation screen, 10 μM, triplicates, mean, 12 days) [%] | PGI d5 (relative PGI release) [2, 5] [%] | PGI d12 (relative PGI release) [2, 5] [%] | Viability d12 (relative viability) ([1]; 10 µM) [%] |
| --- | --- | --- | --- | --- | --- | --- | --- |
| O=C(Nc1ncc(Cc2cccc3ccccc23)s1)C1CCCCC1 [MMV1593532] | 94.209 | -1.117 | -3.615 |  |  |  |  |
| C[C@H]1[C@@H](c2cccc(C(F)(F)F)c2)OC(=O)N1C(=O)NCc1cncc2ccccc12 [MMV1593533] | 85.501 | -2.428 | -25.2459 |  |  |  |  |
| CCNC(=O)Nc1cc(-c2ccccc2)c(-c2cncc(C(=O)O)c2)cn1 [MMV1593534] | 81.2426 | -2.168 | -24.3929 |  |  |  |  |
| CCCCCCC1c2ccc(O)cc2Oc2cc(O)ccc21 [MMV1593535] | 92.5147 | 1.318 | -18.7037 |  |  |  |  |
| Fc1ccc(-c2nc(-c3c[nH]c4ccc(Br)cc34)[nH]c2-c2ccc(F)cc2)cc1 [MMV1593537] | 8.099 | 27.6196 | 72.794 | 69.22 | 0.49 | -0.0663 |  |
| Cl.NC1(C(=O)O)CCP(=O)(O)CC1 (stereo not drawn) [MMV1593538] | 39.7446 | -1.639 | -13.1352 |  |  |  |  |
| O=[N+]([O-])c1ccc2c(CCc3c[nH]c4ccccc34)c[nH]c2c1 [MMV1593539] | 72.058 | 1.886 | 90.6206 |  |  |  |  |
| COc1ccc2cc3[n+](cc2c1OCCN(CCn1cncn1)Cc1ccc(F)cc1F)CCc1cc2c(cc1-3)OCO2 [MMV1593540] | 37.1562 | 1.275 | 36.6613 |  |  |  |  |
| Nc1nc(Nc2ccc3nc(-c4ccc(F)cc4)cc(N)c3c2)cc(-c2ccccc2)n1 [MMV1593541] | 23.9637 | 4.554 | -2.81 |  |  |  |  |
| OCCCCn1cnc2c(O)nc(NCc3ccc(Cl)c(Cl)c3)nc21 [MMV1593542] | 68.6346 | -1.805 | -12.5973 |  |  |  |  |
| COc1cc(C(C(=O)NC2CCCCC2)N(C(=O)Cc2c[nH]c3ccccc23)c2ccc(C(C)C)cc2)cc(OC)c1OC (stereo not drawn) [MMV1593544] | 100.386 | 0.03783 | 0.3627 |  |  |  |  |
| CC1(C)C[C@H]1C(=O)N/C(=C\CCCCSC[C@@H](N)C(=O)O)C(=O)O.[Na+] [MMV1613559] | 85.3181 | -0.3777 | -1.053 |  |  |  |  |
| NC(=O)[C@@H]1CC[C@@H]2CN1C(=O)N2OS(=O)(=O)O [MMV1613560] | 46.8418 | -1.526 | -13.4159 |  |  |  |  |
| Cc1ncc([N+](=O)[O-])n1CC(O)CN1CCOCC1 (stereo not drawn) [MMV1613562] | 97.4765 | 0.195 | -6.037 |  |  |  |  |
| COc1cc(Cc2cnc(N)nc2N)c2c(c1OC)OC(C1CC1)C=C2 (stereo not drawn) [MMV1613563] | 145.38 | -0.539 | -1.956 |  |  |  |  |
| C=C[C@]1(C)C[C@@H](OC(=O)CS[C@@H]2C[C@H]3CC[C@@H](C2)N3C)[C@]2(C)[C@H](C)CC[C@]3(CCC(=O)[C@H]32)[C@@H](C)[C@@H]1O [MMV1633674] |  | -1.377 | 19.1844 |  |  |  | 92.0635 |
| CC(C)c1cc2c(cc1S(=O)(=O)O)[C@@]1(C)CCC[C@@](C)(C(=O)O)[C@@H]1CC2 [MMV1633675] | 100.907 | -5.75 | -3.32 |  |  |  |  |
| Nc1nc2c(ncn2[C@@H]2O[C@H](CO)[C@@H](O)[C@H]2F)c(=O)[nH]1 [MMV1633677] | 216.057 | -0.3308 | 49.9588 |  |  |  |  |
| CC[C@@]1(O)C(=O)OCc2c1cc1n(c2=O)Cc2cc3c(CN(C)C)c(O)ccc3nc2-1.Cl [MMV1633678] | 288.666 | 0.263 | -2.724 |  |  |  |  |
